Data: publication PMC7247818, “Demonstration of Binding Induced Structural Plasticity in a SH2 Domain” (Frontiers in Molecular Biosciences, 2020)
Where a SMILES comes first, the peptide text is derived from it.

Assays:
Conditions in all cases: 10°C
[1] = target: T1, N-SH2 domain of PI3K, T50S variant (Homo sapiens, UniProt P27986, T371S); assay: Stopped-flow binding kinetics, N-SH2 T50S
T1 construct: made in house
Procedure: (§1) N-SH2 wild-type and all the site-directed variants were expressed and purified as described previously ([Visconti et al., 2019]). All the mutants were obtained using a QuickChange Lightning Site-Directed Mutagenesis kit (Agilent technologies), accordingly to manufacturer instructions. Peptides with sequence TNSEDNpYVPMNPG mimicking wild-type Gab2 and TNSEDNpYVPANPG mimicking the M457A variant of Gab2 were purchased from GenScript Biotech Corporation.
(§2) Binding kinetics experiments were performed using a single-mixing SX-18 stopped-flow instrument (Applied Photophysics); all binding experiments were conducted in 50 mM Hepes pH 7.4 300 mM NaCl at 10°C. Excitation was at 280 nm and emission was collected using a […] cut-off glass filter. Pseudo-first order binding experiments were performed mixing a constant concentration of dansylated Gab2_448–460 and Gab2_448–460 M457A (1 μM) vs. N-SH2 wt and its mutants at concentrations ranging from […]. For each N-SH2 concentration, usually 5 individual traces were averaged and in all cases the fluorescence time courses obtained was satisfactorily fitted by using a single exponential equation.
(§3) One of the aims of this study is to depict the molecular details of the interaction between the N-SH2 domain of PI3K and Gab2. A powerful strategy to achieve this goal relies on perturbing the system by producing conservative site-directed variants while monitoring the effect of mutations on the association and dissociation rate constants between the interacting partners (kon and koff respectively). Thus, we designed and successfully produced 21 site-directed variants of the N-SH2 domain and challenged them vs. a peptide mimicking the region of Gab2 ranging from residue 448–460 (Gab2_448–460), containing the pY-X-X-M motif that is specifically recognized by the N-SH2 domain ([Waksman et al., 1992]; [Songyang et al., 1993]). The choise of mutations was designed in analogy to phi-value analysis methodology in protein folding studies ([Fersht and Sato, 2004]). […] To monitor binding by fluorescence, a dansyl group was added at the N-terminus of the peptide. The binding reaction was monitored by stopped-flow experiments following the change in FRET signal, taking advantage of the two Trp residues on the N-SH2 domain in positions 12 and 14 as fluorescence donor and the dansyl group on Gab2_448–460 as acceptor. The experiments were performed in pseudo-first order conditions with Gab2_448–460 at fixed concentration of 1 μM rapidly mixed vs. large excess of N-SH2 wt and its variants, ranging from 4 to 14 μM, in buffer Hepes 50 mM, NaCl 300 mM, pH 7.4, at 10°C.
(§4) with kon being the slope of the line and koff the intercept with the y-axis. Since indirect calculation of koff obtained by extrapolation is associated with high experimental error, we performed displacement experiments to directly measure koff by challenging a pre-incubated complex of dansylated Gab2_448–460 and N-SH2 domain both at the concentration of 1 μM vs. a large excess of non-dansylated Gab2_448–460 (50 μM). Kinetic parameters extracted from data together with the calculated changes in activation and equilibrium free energies are reported in Table 1. Analysis of kinetic data highlights that T48S, L51A, and L59A variations cause a detectable decrease of the affinity of the domain for Gab2_448–460 of ∼10-fold, affecting both the kon and koff. […] Since L99 residue is part of the binding pocket, this dramatic effect on the binding affinity is expected.
(§5) SH2 domains bind ligands with a phosphorylated tyrosine in their sequence. The N-SH2 domain of PI3K is known to recognize a specific consensus sequences that present a methionine in position +3 in respect to the phosphotyrosine (M457 in Gab2). […]

[2] = target: T2, N-SH2 domain of PI3K, I17V variant (Homo sapiens, UniProt P27986, I338V); assay: Stopped-flow binding kinetics, N-SH2 I17V
T2 construct: made in house
Procedure: as §1, §2, §3, §4, §5

[3] = target: T3, N-SH2 domain of PI3K, L51A variant (Homo sapiens, UniProt P27986, L372A); assay: Stopped-flow binding kinetics, N-SH2 L51A
T3 construct: made in house
Procedure: as §1, §2, §3, §4, §5

[4] = target: T4, N-SH2 domain of PI3K, V81A variant (Homo sapiens, UniProt P27986, V402A); assay: Stopped-flow binding kinetics, N-SH2 V81A
T4 construct: made in house
Procedure: as §1, §2, §3, §4, §5

[5] = target: T5, N-SH2 domain of PI3K, L99A variant (Homo sapiens, UniProt P27986, L420A); assay: Stopped-flow binding kinetics, N-SH2 L99A
T5 construct: made in house
Procedure: as §1, §2
(§6) One of the aims of this study is to depict the molecular details of the interaction between the N-SH2 domain of PI3K and Gab2. […] To monitor binding by fluorescence, a dansyl group was added at the N-terminus of the peptide. The binding reaction was monitored by stopped-flow experiments following the change in FRET signal, taking advantage of the two Trp residues on the N-SH2 domain in positions 12 and 14 as fluorescence donor and the dansyl group on Gab2_448–460 as acceptor. […]
(§7) with kon being the slope of the line and koff the intercept with the y-axis. […] Kinetic parameters extracted from data together with the calculated changes in activation and equilibrium free energies are reported in Table 1. […]

N-SH2 domain of PI3K, WT = target: T6, N-SH2 domain of PI3K, WT (Homo sapiens, UniProt P27986); assay: Stopped-flow binding kinetics, N-SH2 WT
T6 construct: made in house
Procedure: as §1, §2, §3, §4, §5

[6] = target: T7, N-SH2 domain of PI3K, I60V variant (Homo sapiens, UniProt P27986, I381V); assay: Stopped-flow binding kinetics, N-SH2 I60V
T7 construct: made in house
Procedure: as §1, §2, §3, §4, §5

[7] = target: T8, N-SH2 domain of PI3K, L35A variant (Homo sapiens, UniProt P27986, L356A); assay: Stopped-flow binding kinetics, N-SH2 L35A
T8 construct: made in house
Procedure: as §1, §2, §6, §7

[8] = target: T9, N-SH2 domain of PI3K, T48S variant (Homo sapiens, UniProt P27986, T369S); assay: Stopped-flow binding kinetics, N-SH2 T48S
T9 construct: made in house
Procedure: as §1, §2, §6, §7

[9] = target: T10, N-SH2 domain of PI3K, V22A variant (Homo sapiens, UniProt P27986, V343A); assay: Stopped-flow binding kinetics, N-SH2 V22A
T10 construct: made in house
Procedure: as §1, §2, §3, §4, §5

[10] = target: T11, N-SH2 domain of PI3K, P74A variant (Homo sapiens, UniProt P27986, P395A); assay: Stopped-flow binding kinetics, N-SH2 P74A
T11 construct: made in house
Procedure: as §1, §2, §3, §4, §5

[11] = stopped-flow FRET, 1 μM dansylated peptide, 50 mM Hepes pH 7.4, 300 mM NaCl
[12] = stopped-flow kinetics, pH 7.4, 300 mM NaCl
[13] = displacement experiment, pH 7.4, 300 mM NaCl

T8 sequence (P27986 333-428 L356A): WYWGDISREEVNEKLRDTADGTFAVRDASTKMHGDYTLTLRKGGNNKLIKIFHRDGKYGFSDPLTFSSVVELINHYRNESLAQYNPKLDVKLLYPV
T11 sequence (P27986 333-428 P395A): as the sequence (P27986 333-428 L356A) above, with A24L, P63A counted along it
T4 sequence (P27986 333-428 V402A): as the sequence (P27986 333-428 L356A) above, with A24L, V70A counted along it
T3 sequence (P27986 333-428 L372A): as the sequence (P27986 333-428 L356A) above, with A24L, L40A counted along it
T10 sequence (P27986 333-428 V343A): as the sequence (P27986 333-428 L356A) above, with V11A, A24L counted along it
T7 sequence (P27986 333-428 I381V): as the sequence (P27986 333-428 L356A) above, with A24L, I49V counted along it
T9 sequence (P27986 333-428 T369S): as the sequence (P27986 333-428 L356A) above, with A24L, T37S counted along it
T5 sequence (P27986 333-428 L420A): as the sequence (P27986 333-428 L356A) above, with A24L, L88A counted along it
T2 sequence (P27986 333-428 I338V): as the sequence (P27986 333-428 L356A) above, with I6V, A24L counted along it
T6 sequence (P27986 333-428 limits assumed): as the sequence (P27986 333-428 L356A) above, with A24L counted along it
T1 sequence (P27986 333-428 T371S): as the sequence (P27986 333-428 L356A) above, with A24L, T39S counted along it

With `CSCC[C@H](NC(=O)[C@@H]1CCCN1C(=O)[C@@H](NC(=O)[C@H](Cc1ccc(OP(=O)(O)O)cc1)NC(=O)[C@H](CC(N)=O)NC(=O)[C@H](CC(=O)O)NC(=O)[C@H](CCC(=O)O)NC(=O)[C@H](CO)NC(=O)[C@H](CC(N)=O)NC(=O)[C@@H](N)[C@@H](C)O)C(C)C)C(=O)N[C@@H](CC(N)=O)C(=O)N1CCC[C@H]1C(=O)NCC(=O)O` [Gab2_448–460] (HELM PEPTIDE1{T.N.S.E.D.N.[O=C([C@H](Cc1ccc(OP(=O)(O)O)cc1)N[*:1])[*:2]].V.P.M.N.P.G}$$$$V2.0) the kon [1, 11] was 1.56e+07 ± 800000 M⁻¹ s⁻¹, the Kd [1, 12] was 600 ± 100 nM and the koff [2, 13] was 4.5 ± 0.2 s⁻¹. It also gave a kon [2, 11] of 2.44e+07 ± 1.7e+06 M⁻¹ s⁻¹, a Kd [2, 12] of 200 ± 100 nM and a koff [3, 13] of 18 ± 1 s⁻¹. The kon [3, 11] was 5.6e+06 ± 1.1e+06 M⁻¹ s⁻¹, the Kd [3, 12] was 3200 ± 200 nM and the koff [4, 13] was 4.5 ± 0.2 s⁻¹. It also gave a kon [4, 11] of 1.2e+07 ± 1.4e+06 M⁻¹ s⁻¹, a Kd [4, 12] of 400 ± 100 nM and a koff [5, 13] of 160 ± 10 s⁻¹. For the same compound, the kon [5, 11] was 8.2e+06 ± 1.7e+06 M⁻¹ s⁻¹, the Kd [5, 12] was 20000 ± 200 nM and the koff (N-SH2 domain of PI3K, WT; displacement of 1 μM complex by 50 μM non-dansylated Gab2_448–460, 50 mM Hepes pH 7.4, 300 mM NaCl) was 3.9 ± 0.2 s⁻¹. It also gave a Kd (N-SH2 domain of PI3K, WT; from stopped-flow kinetics, pH 7.4, 300 mM NaCl) of 200 ± 100 nM, a kon (N-SH2 domain of PI3K, WT; stopped-flow FRET, 1 μM dansylated peptide vs excess N-SH2, 50 mM Hepes pH 7.4, 300 mM NaCl, slope of kobs) of 1.95e+07 ± 1e+06 M⁻¹ s⁻¹ and a koff [6, 13] of 6.9 ± 0.3 s⁻¹. For the same compound, the kon [6, 11] was 9.1e+06 ± 1.1e+06 M⁻¹ s⁻¹, the Kd [6, 12] was 800 ± 100 nM and the koff [7, 13] was 6.7 ± 0.3 s⁻¹. It also gave a kon [7, 11] of 7e+06 ± 600000 M⁻¹ s⁻¹, a Kd [7, 12] of 1000 ± 100 nM and a koff [8, 13] of 23 ± 1 s⁻¹. The kon [8, 11] was 6.4e+06 ± 500000 M⁻¹ s⁻¹, the Kd [8, 12] was 3700 ± 100 nM and the koff [9, 13] was 7.4 ± 0.4 s⁻¹. It also gave a kon [9, 11] of 1.12e+07 ± 400000 M⁻¹ s⁻¹, a Kd [9, 12] of 700 ± 100 nM and a koff [10, 13] of 27 ± 1 s⁻¹. The kon [10, 11] was 4.87e+07 ± 1.5e+06 M⁻¹ s⁻¹ and the Kd [10, 12] was 600 ± 100 nM.
